Earlier results in PubChem BioAssay AID1259409 (Chemical Carcinogenesis Research Information System (CCRIS), 2018).

Tested on: rodent chemically induced tumor inhibition, incidence and multiplicity
Experiment: CCRIS tumor inhibitor studies

For `O=c1c(O)c(-c2ccc(O)c(O)c2)oc2cc(O)cc(O)c12`, the “tumour outcome (control, treated, inhibition, significance)” value (Carcinogen: BENZO[A]PYRENE, 50-32-8, Dose [Inhibitor]: 25 MG IN 0.1 ML DMSO 3/WK, ADMINISTERED SIMULTANEOUSLY WITH CARCINOGEN FOR DURATION OF STUDY (STUDY DURATION: 368 D), Route [Inhibitor]: DERMAL, Species: MOUSE, Strain/Sex: ICR/FEMALE, Target Tissue: Type of Lesion: SKIN: PAPILLOMA, Dose [Carcinogen]: 5 UG IN 0.1 ML DMSO THAT ALSO CONTAINED AGENT 3/WK FOR DURATION OF STUDY, Promoter: NONE USED) is listed as 13/50 (26%), 0/50 (0%), 100%, not calculated, the “tumour outcome (control, treated, inhibition, significance)” value (Carcinogen: BENZO[A]PYRENE, 50-32-8, Dose [Inhibitor]: 100 UG IN 0.2 ML ACETONE ONCE 5 MINUTES BEFORE CARCINOGEN TREATMENT (STUDY DURATION: 31 WK), Route [Inhibitor]: DERMAL, Species: MOUSE, Strain/Sex: CD-1/FEMALE, Target Tissue: Type of Lesion: SKIN: PAPILLOMA, Dose [Carcinogen]: 400 NMOL IN 0.2 ML ACETONE ONCE, Promoter: 12-O-TETRADECANOYLPHORBOL-13-ACETATE, 16561-29-8) is listed as 90%, 82%, 9%, not calculated and the “tumour outcome (control, treated, inhibition, significance)” value (Carcinogen: DIETHYLNITROSAMINE, 55-18-5, N-METHYLNITROSOUREA, 684-93-5, 1,2-DIMETHYLHYDRAZINE, 540-73-8, N-BUTYL-N-(4-HYDROXYB, Carcinogen: DIETHYLNITROSAMINE, 55-18-5, N-METHYLNITROSOUREA, 684-93-5, 1,2-DIMETHYLHYDRAZINE, 540-73-8, N-BUTYL-N-(4-HYDROXYB, Dose [Inhibitor]: 0, 1% IN DIET FOR 4 WK BEGINNING 1 DAY PRIOR TO CARCINOGEN TREATMENT (STUDY DURATION: 36 WK), Route [Inhibitor]: ORAL, Species: RAT, Strain/Sex: F344/MALE, Target Tissue: Type of Lesion: KIDNEY: ADENOMA, Dose [Carcinogen]: 100 MG/KG DEN ONCE, 20 MG/KG MNU 4 TIMES, 40 MG/KG DMH 4 TIMES, 0.05% BBN IN DRINKING WATER FOR 2 WK, 0.1% DHPN IN D, Dose [Carcinogen]: 100 MG/KG DEN ONCE, 20 MG/KG MNU 4 TIMES, 40 MG/KG DMH 4 TIMES, 0.05% BBN IN DRINKING WATER FOR 2 WK, 0.1% DHPN IN D, Promoter: NONE USED) is listed as 4/14 (29%), 4/13 (31%), -7%, not significant. The “tumour outcome (control, treated, inhibition, significance)” value (Carcinogen: DIETHYLNITROSAMINE, 55-18-5, N-METHYLNITROSOUREA, 684-93-5, 1,2-DIMETHYLHYDRAZINE, 540-73-8, N-BUTYL-N-(4-HYDROXYB, Carcinogen: DIETHYLNITROSAMINE, 55-18-5, N-METHYLNITROSOUREA, 684-93-5, 1,2-DIMETHYLHYDRAZINE, 540-73-8, N-BUTYL-N-(4-HYDROXYB, Dose [Inhibitor]: 0, 1% IN DIET FOR 4 WK BEGINNING 1 DAY PRIOR TO CARCINOGEN TREATMENT (STUDY DURATION: 36 WK), Route [Inhibitor]: ORAL, Species: RAT, Strain/Sex: F344/MALE, Target Tissue: Type of Lesion: KIDNEY: NEPHROBLASTOMA, Dose [Carcinogen]: 100 MG/KG DEN ONCE, 20 MG/KG MNU 4 TIMES, 40 MG/KG DMH 4 TIMES, 0.05% BBN IN DRINKING WATER FOR 2 WK, 0.1% DHPN IN D, Dose [Carcinogen]: 100 MG/KG DEN ONCE, 20 MG/KG MNU 4 TIMES, 40 MG/KG DMH 4 TIMES, 0.05% BBN IN DRINKING WATER FOR 2 WK, 0.1% DHPN IN D, Promoter: NONE USED) was 7/14 (50%), 6/13 (46%), 8%, not significant, the “tumour outcome (control, treated, inhibition, significance)” value (Carcinogen: DIETHYLNITROSAMINE, 55-18-5, N-METHYLNITROSOUREA, 684-93-5, 1,2-DIMETHYLHYDRAZINE, 540-73-8, N-BUTYL-N-(4-HYDROXYB, Carcinogen: DIETHYLNITROSAMINE, 55-18-5, N-METHYLNITROSOUREA, 684-93-5, 1,2-DIMETHYLHYDRAZINE, 540-73-8, N-BUTYL-N-(4-HYDROXYB, Dose [Inhibitor]: 0, 1% IN DIET FOR 4 WK BEGINNING 1 DAY PRIOR TO CARCINOGEN TREATMENT (STUDY DURATION: 36 WK), Route [Inhibitor]: ORAL, Species: RAT, Strain/Sex: F344/MALE, Target Tissue: Type of Lesion: LARGE INTESTINE: ADENOMA, Dose [Carcinogen]: 100 MG/KG DEN ONCE, 20 MG/KG MNU 4 TIMES, 40 MG/KG DMH 4 TIMES, 0.05% BBN IN DRINKING WATER FOR 2 WK, 0.1% DHPN IN D, Dose [Carcinogen]: 100 MG/KG DEN ONCE, 20 MG/KG MNU 4 TIMES, 40 MG/KG DMH 4 TIMES, 0.05% BBN IN DRINKING WATER FOR 2 WK, 0.1% DHPN IN D, Promoter: NONE USED) was 7/14 (50%), 5/13 (38%), 24%, not significant and the “tumour outcome (control, treated, inhibition, significance)” value (Carcinogen: DIETHYLNITROSAMINE, 55-18-5, N-METHYLNITROSOUREA, 684-93-5, 1,2-DIMETHYLHYDRAZINE, 540-73-8, N-BUTYL-N-(4-HYDROXYB, Carcinogen: DIETHYLNITROSAMINE, 55-18-5, N-METHYLNITROSOUREA, 684-93-5, 1,2-DIMETHYLHYDRAZINE, 540-73-8, N-BUTYL-N-(4-HYDROXYB, Dose [Inhibitor]: 0, 1% IN DIET FOR 4 WK BEGINNING 1 DAY PRIOR TO CARCINOGEN TREATMENT (STUDY DURATION: 36 WK), Route [Inhibitor]: ORAL, Species: RAT, Strain/Sex: F344/MALE, Target Tissue: Type of Lesion: LARGE INTESTINE: CARCINOMA, Dose [Carcinogen]: 100 MG/KG DEN ONCE, 20 MG/KG MNU 4 TIMES, 40 MG/KG DMH 4 TIMES, 0.05% BBN IN DRINKING WATER FOR 2 WK, 0.1% DHPN IN D, Dose [Carcinogen]: 100 MG/KG DEN ONCE, 20 MG/KG MNU 4 TIMES, 40 MG/KG DMH 4 TIMES, 0.05% BBN IN DRINKING WATER FOR 2 WK, 0.1% DHPN IN D, Promoter: NONE USED) was 3/14 (21%), 5/13 (38%), -81%, not significant.
